# Patent US7217729B2, “Substituted indoles, process for the production thereof and use thereof for combatting pain” (Grunenthal GmbH, priority 2001, dated 2007)
# Test system: Male NMRI mice
# Experiment: phenylquinone-induced writhing in mice (analgesic testing by writhing test)
# Type: in vivo
# Settings: 10 mg/kg i.v., phenylquinone i.p. 10 minutes after compound, writhing counted 5–20 minutes after phenylquinone
# Method: The investigation into the analgesic efficacy of the compounds according to the invention was performed by phenylquinone-induced writhing in mice, modified after I. C. Hendershot, J. Forsaith, J. Pharmacol. Exp. There. 125, 237240 (1959). The corresponding literature description is hereby introduced as a reference and is deemed to be part of the disclosure.
# Male NMRI mice weighing from 25–30 g were used for this purpose. Groups of 10 animals per compound dose received, 10 minutes after intravenous administration of the compounds tested, 0.3 ml/mouse of a 0.02% aqueous solution of phenylquinone (phenylbenzoquinone, Sigma, Deisenhofen; solution prepared with addition of 5% of ethanol and stored in a water bath at 45° C.) administered intraperitoneally. The animals were then placed individually in observation cages. A push button counter was used to record the number of pain-induced stretching movements (writhing reactions=straightening of the torso with stretching of the rear extremities) for 5–20 minutes after phenylquinone administration. The control was provided by animals which received only physiological common salt solution with phenylquinone.
# The compounds according to the invention were tested at the standard dosage of 10 mg/kg. The percentage inhibition (% inhibition) of the writhing reactions by a compound was calculated according to the following formula: […]
# Analgesic Testing by Writhing Test in Mice
# The in-depth investigation into the analgesic efficacy of the compounds according to the invention was performed using phenylquinone-induced writhing in mice, as described above.
row,Compound,% inhibition of writhing reactions [%]
1,"5-Chloro-3-{[3′-(N,N-dimethylaminomethyl)-4′-hydroxy-4′-(3″-methoxyphenyl)-cyclohexylamino]-methyl}-1H-indole 2-carboxylic acid ester [Compound 1]",48
2,CCOC(=O)c1c(CNC2CCC(O)(c3cccc(OC)c3)C(CN(C)C)C2)c2c(Cl)cc(Cl)cc2n1C(=O)OC(C)(C)C (stereo not shown) [Compound 4],100
3,"CCOC(=O)c1[nH]c2cc(Cl)cc(Cl)c2c1CNC1CCC(O)(c2cccc(OC)c2)C(CN(C)C)C1 (stereo not shown) [Compound 2, 4,6-Dichloro-3-{[3′-(N,N-dimethylaminomethyl)-4′-hydroxy-4′-(3″-methoxyphenyl)-cyclohexylamino]-methyl}-1H-indole 2-carboxylic acid ethyl ester]",97
4,"COc1cccc(C2(O)CCC(NCc3c(C(=O)O)[nH]c4cc(Cl)cc(Cl)c34)CC2CN(C)C)c1 (stereo not shown) [Compound 3, 4,6-Dichloro-3-{[3′-(N,N-dimethylaminomethyl)-4′-hydroxy-4′-(3″-methoxyphenyl)-cyclohexylamino]-methyl}-1H-indole 2-carboxylic acid]",72
